# Measured values as given in ChEMBL document CHEMBL1821699, “1,5-Disubstituted indole derivatives as selective human neuronal nitric oxide synthase inhibitors” (Bioorg Med Chem Lett, 2011).
# pIC50: −log10 of the molar value.
# Columns and labels:
# [1] = target: Nitric oxide synthase, inducible (Homo sapiens, UniProt P35228); experiment: Inhibition of human recombinant iNOS expressed in Sf9 cells assessed as conversion of [3H]-L-arginine to [3H]-L-citrulline by radiometric method
# Nitric oxide synthase 3 = target: T1, Nitric oxide synthase 3 (Homo sapiens, UniProt P29474); experiment: Inhibition of human recombinant eNOS expressed in Sf9 cells assessed as conversion of [3H]-L-arginine to [3H]-L-citrulline by radiometric method
# T1 sequence (P29474 whole entry): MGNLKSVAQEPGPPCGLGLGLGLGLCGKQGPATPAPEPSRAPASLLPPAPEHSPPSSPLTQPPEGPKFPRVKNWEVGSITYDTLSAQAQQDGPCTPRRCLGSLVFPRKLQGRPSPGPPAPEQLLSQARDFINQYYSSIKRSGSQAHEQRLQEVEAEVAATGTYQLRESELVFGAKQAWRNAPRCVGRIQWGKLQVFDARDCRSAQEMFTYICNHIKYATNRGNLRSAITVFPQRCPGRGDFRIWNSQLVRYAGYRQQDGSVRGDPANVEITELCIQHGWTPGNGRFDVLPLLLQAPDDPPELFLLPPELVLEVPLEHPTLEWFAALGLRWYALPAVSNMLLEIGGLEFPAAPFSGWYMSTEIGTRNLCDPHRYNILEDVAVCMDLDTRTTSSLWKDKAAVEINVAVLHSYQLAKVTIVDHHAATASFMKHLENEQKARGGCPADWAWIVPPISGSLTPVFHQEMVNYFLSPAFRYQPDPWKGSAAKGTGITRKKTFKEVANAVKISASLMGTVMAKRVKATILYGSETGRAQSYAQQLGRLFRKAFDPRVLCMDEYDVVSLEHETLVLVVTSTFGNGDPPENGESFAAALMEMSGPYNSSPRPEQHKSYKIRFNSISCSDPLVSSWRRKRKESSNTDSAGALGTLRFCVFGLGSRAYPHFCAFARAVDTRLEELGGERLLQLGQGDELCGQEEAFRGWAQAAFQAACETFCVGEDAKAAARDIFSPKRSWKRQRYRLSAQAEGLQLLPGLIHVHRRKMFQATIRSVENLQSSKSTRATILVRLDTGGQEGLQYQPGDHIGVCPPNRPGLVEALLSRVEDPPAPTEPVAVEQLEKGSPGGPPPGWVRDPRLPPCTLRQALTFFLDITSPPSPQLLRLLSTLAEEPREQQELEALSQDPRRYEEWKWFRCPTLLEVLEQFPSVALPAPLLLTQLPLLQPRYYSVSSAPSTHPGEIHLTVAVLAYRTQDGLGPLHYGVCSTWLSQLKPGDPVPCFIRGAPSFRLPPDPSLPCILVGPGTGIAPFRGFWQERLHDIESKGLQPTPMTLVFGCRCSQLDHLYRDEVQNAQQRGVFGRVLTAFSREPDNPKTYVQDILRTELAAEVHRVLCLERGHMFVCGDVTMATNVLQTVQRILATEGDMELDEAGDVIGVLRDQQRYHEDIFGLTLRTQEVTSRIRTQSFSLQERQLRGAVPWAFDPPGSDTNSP
# Nitric oxide synthase, inducible, sequence (P35228 whole entry): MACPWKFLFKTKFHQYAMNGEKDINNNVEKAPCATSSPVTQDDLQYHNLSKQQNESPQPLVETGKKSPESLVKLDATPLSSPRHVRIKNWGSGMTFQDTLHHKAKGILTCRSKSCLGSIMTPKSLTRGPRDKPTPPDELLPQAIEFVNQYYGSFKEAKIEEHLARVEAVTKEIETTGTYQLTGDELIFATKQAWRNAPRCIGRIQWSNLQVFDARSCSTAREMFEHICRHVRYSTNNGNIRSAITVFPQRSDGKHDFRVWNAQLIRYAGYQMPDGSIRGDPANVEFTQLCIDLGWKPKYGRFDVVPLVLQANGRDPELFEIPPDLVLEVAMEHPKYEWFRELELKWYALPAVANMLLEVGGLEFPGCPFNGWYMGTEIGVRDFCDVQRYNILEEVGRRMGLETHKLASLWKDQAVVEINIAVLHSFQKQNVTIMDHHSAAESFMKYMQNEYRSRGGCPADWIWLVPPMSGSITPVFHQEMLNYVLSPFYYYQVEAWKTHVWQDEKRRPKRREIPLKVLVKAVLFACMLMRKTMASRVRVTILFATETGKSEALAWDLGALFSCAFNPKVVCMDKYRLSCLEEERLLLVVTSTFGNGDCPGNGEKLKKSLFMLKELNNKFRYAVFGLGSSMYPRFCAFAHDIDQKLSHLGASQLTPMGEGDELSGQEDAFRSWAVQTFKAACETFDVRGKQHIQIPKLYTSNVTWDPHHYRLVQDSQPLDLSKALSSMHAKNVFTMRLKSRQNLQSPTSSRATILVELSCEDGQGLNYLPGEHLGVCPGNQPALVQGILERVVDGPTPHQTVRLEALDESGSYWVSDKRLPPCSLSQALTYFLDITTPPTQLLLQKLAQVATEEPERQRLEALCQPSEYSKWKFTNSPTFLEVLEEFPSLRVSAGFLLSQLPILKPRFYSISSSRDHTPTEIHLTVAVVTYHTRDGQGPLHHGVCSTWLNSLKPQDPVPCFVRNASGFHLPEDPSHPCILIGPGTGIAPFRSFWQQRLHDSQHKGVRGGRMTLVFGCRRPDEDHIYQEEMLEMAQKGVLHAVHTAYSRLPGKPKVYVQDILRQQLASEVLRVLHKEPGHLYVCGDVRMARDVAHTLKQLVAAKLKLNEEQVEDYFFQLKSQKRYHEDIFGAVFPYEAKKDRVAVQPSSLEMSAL
structure (smiles),measurement,setting,value
CN(C)CCn1ccc2cc(NC(=N)c3cccs3)ccc21,pIC50,[1],4.80
CN1CCCC(n2ccc3cc(NC(=N)c4ccco4)ccc32)CC1 (stereo in doubt; (+)-15),pIC50,[1],4.14
CN1CCCC1CCn1ccc2cc(NC(=N)c3cccs3)ccc21 (racemic),pIC50,[1],4.85
N=C(Nc1ccc2c(ccn2CCCNC2CC2)c1)c1cccs1,pIC50,[1],4.47
N=C(Nc1ccc2c(ccn2CCN2CCCCC2)c1)c1cccs1,pIC50,[1],5.34
CN1CCC[C@@H]1CCn1ccc2cc(NC(=N)c3cccs3)ccc21,pIC50,[1],4.66
same,pIC50,Nitric oxide synthase 3,5.47
N=C(Nc1ccc2c(ccn2CCCN2CCOCC2)c1)c1cccs1,pIC50,[1],4.38
CN1CCCCC1CCn1ccc2cc(NC(=N)c3cccs3)ccc21 (stereo not drawn),pIC50,[1],5.01
"CN1CCCC(n2ccc3cc(NC(=N)c4ccco4)ccc32)CC1 (single isomer, unassigned; (-))",pIC50,[1],4.70
CN1CCC[C@H]1CCn1ccc2cc(NC(=N)c3cccs3)ccc21,pIC50,[1],4.77
same,pIC50,Nitric oxide synthase 3,5.72
N=C(Nc1ccc2c(ccn2CCCNC23CC4CC(CC(C4)C2)C3)c1)c1cccs1,pIC50,[1],4.74
